The structures appear in SMILES notation.

Data set [1] has as its system trauma victims. Nature of the data set: Trauma victims with or without PTSD or depression, stress-related physiologic measures (Example 6). It is filed as in vivo, human. Conditions: 25-75 mg/day by mouth for 1 to 6 months.
In data set [2] the test system is healthy male volunteers. Conditions: cited from earlier work.
For data set [3], the system named is male and female patients with PTSD, panic disorder, anxiety, depression. As to the kind of experiment: Sixteen case reports: oral 7-keto DHEA in PTSD, panic disorder, anxiety, depression and other conditions (Example 2). It is filed as in vivo, human. The method, then:
In all the patient reports that follow, 7-keto DHEA was administered orally.

Data set [4] relates to women with severe chronic PTSD. Nature of the data set: Five case reports: 7-keto DHEA in women with treatment-resistant PTSD (Example 1). It is filed as in vivo, human. The source says:
The following case reports are of 5 women with severe chronic PTSD resulting from severe early abuse who continued to be highly symptomatic despite receiving extensive psychotherapy and years of psychopharmacologic treatment. […] The improvements in these symptoms not only were subjective and objective, but also manifested in significant and rapid benefits in vocational and interpersonal functioning.
Ms. […] A. was so fearful and avoidant they would miss many sessions. They were so fragile and frightened they would frequently dissociate during sessions and forget what had been discussed. […] After the first week of 7-keto DHEA therapy, Ms. […] They reported feeling “more organized, more present” and being able to enjoy socializing “with a significant lessening of constant fear and self-criticism.”
The outcome of this case series offers evidence that 7-keto DHEA is beneficial in treating patients with histories of severe early trauma and persistent refractory PTSD.

For data set [5], the system named is midlife major and minor depression or dysthymia. As to conditions: case reports; cited from earlier work.
The test system of data set [6] is trauma victims. Nature of the data set: Trauma victims after a terrorist attack, 7-keto DHEA vs placebo (Example 4). It is filed as in vivo, human. Conditions: 50 or 75 mg/day by mouth for 2 to 6 weeks immediately following the incident.
In data set [7] the test system is trauma victims with PTSD or depression. As to the kind of experiment: Trauma victims with PTSD or depression, 7-keto DHEA vs placebo (Example 5). As to conditions: 75 mg/day by mouth for 1 to 6 months. It is filed as in vivo, human.
For data set [8], the system named is patients with treatment-resistant PTSD, panic disorder, anxiety, depression and other conditions. Nature of the data set: Eight case reports: 7-keto DHEA in treatment-resistant patients (Example 3). It is filed as in vivo, human.
Data set [9] has as its target T1, [^3H]dexamethasone-activated glucocorticoid receptor (Homo sapiens, UniProt P04150).
T1 construct: glucocorticoid receptor in brain cells; host or cells: brain cells
T1 sequence (P04150 1-777): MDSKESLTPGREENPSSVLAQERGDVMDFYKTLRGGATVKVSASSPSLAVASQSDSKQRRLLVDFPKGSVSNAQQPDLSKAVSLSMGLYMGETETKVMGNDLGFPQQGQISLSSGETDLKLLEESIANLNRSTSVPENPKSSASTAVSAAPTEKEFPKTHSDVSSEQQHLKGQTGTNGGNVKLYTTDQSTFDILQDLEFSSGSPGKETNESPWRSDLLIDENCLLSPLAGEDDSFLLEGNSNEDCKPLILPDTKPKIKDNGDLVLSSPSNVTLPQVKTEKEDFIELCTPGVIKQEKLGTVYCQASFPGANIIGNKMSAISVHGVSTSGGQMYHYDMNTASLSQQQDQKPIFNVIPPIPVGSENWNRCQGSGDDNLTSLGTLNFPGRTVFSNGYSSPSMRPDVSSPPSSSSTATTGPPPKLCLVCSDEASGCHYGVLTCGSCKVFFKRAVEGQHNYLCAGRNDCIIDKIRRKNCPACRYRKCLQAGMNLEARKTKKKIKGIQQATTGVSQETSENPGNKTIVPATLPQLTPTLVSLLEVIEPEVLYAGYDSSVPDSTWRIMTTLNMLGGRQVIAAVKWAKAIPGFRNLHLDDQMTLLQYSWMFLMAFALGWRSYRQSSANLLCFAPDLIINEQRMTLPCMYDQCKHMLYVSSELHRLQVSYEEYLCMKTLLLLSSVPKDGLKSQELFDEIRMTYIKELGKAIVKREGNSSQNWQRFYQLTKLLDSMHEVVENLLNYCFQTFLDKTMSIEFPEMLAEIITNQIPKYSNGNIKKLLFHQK
Conditions: brain cells; cited from earlier work.

In the case of `CC(=O)OC1CC[C@@]2(C)C(=CC(=O)[C@@H]3[C@@H]2CC[C@]2(C)C(=O)CC[C@@H]32)C1` (stereo partly shown) [7-keto DHEA, 3-acetyl-7-oxo-dehydroepiandrosterone], the “stress-related physiologic measures (pain, headaches, hypertension, alcohol and substance abuse, work days lost to illness, cardiac events) compared to placebo” value in data set [1] (patients with PTSD or depression) and in data set [1] (patients without PTSD or depression) was “reduction in one or more stress-related physiologic measures” throughout. Besides, in data set [2] (healthy male volunteers), the “differences in clinical laboratory values, minor adverse experiences, vital signs, blood chemistry, urinalysis between treatment and placebo groups” value is “no differences”. The “side effects or changes in clinical laboratory values” in [2] (study by Davidson et al.) is listed as “no side effects or changes in clinical laboratory values”. In addition, the clinical response entry in data set [3] (Patient 1, PTSD and Generalized Anxiety Disorder, 25 mg/day oral) was “less anxiety within 2 days”; in data set [3] (Patient 2, PTSD, chronic anxiety, Major depression, 50 mg/day oral), “less anxiety and depression”; in data set [3] (Patient 3, Panic Disorder and Generalized Anxiety Disorder, 25 mg/day oral), “less anxiety and panic”; in [3] (Patient 4, PTSD, Generalized Anxiety Disorder, Bipolar Depression, 25 mg/day oral), “less anxious and depressed”; in [3] (Patient 5, Bipolar Depression and PTSD, 25 mg/day oral), “less anxious and depressed”; in [3] (Patient 6, Tourette's Syndrome, chronic dysthymia, anxiety, 50 mg/day oral), “calmer and in a better mood”. Also, the clinical response result in [3] (Patient 7, Ankylosing Spondylitis, chronic pain, depression, 25 mg/day oral) is “calmer and less depressed”; in data set [3] (Patient 8, Dissociative Disorder, PTSD, Major Depression, Dependent Personality Disorder, 25 mg/day oral), “less anxiety and dissociation”; in data set [3] (Patient 9, PTSD, Generalized Anxiety Disorder, Major Depression, 25 to 50 mg/day oral), “less anxious and depressed”; in [3] (Patient 10, Bipolar Depression and PTSD, 25 mg/day oral), “less anxious and depressed”; in data set [3] (Patient 11, Bipolar Depression and PTSD, 25 mg/day oral), “less anxious”; in data set [3] (Patient 12, Bipolar Depression and PTSD, 25 mg/day oral), “less anxious”. Besides, the clinical response result in [3] (Patient 13, PTSD and Major Depression, 50 mg/day oral) is “less depressed and anxious”; in [3] (Patient 14, Adult ADHD, Bereavement, PTSD, 25 mg/day oral) it was “less irritable and anxious”; in data set [3] (Patient 15, Generalized Anxiety Disorder, 25 mg/day oral) it was “lower anxiety and better mood”; in data set [3] (Patient 16, Generalized Anxiety Disorder and Fibromyalgia, 25 mg/day oral), “lower anxiety and irritability”; in [4] (Case 1 (PTSD, bipolar II, dissociative identity disorder), 25 mg/day, after the first week, adjunct) it was “stopped feeling so fearful, stopped dissociating, was much more communicative, and related better”; in [4] (Case 1, after 3 weeks on 50 mg/day), “stopped having nightmares, had much better concentration, functioned better at work and in social situations, had more stable mood”. Besides, the clinical response result is “even further improvement” in data set [4] (Case 1, dosage increased to 50 mg daily); “feeling much better” in [4] (Case 2 (PTSD, bipolar disorder NOS), 25 mg daily, within a few days, adjunct); “felt better and was no longer getting anxious and overwhelmed by stressful events” in [4] (Case 3 (PTSD, major depressive disorder), 25 mg daily, after 4 days, adjunct); “some improvement in daily functioning and more positive affect” in data set [4] (Case 4 (PTSD with dissociative identity disorder), 50 mg for 6 weeks, adjunct); “became much more social” in data set [4] (Case 4, 100 mg for 6 weeks); “continued to improve” in data set [4] (Case 4, 150 mg daily). The clinical response entry is “feeling calmer and being better able to deal with the stress” in data set [4] (Case 5 (anxiety, PTSD, dissociative identity disorder, panic attacks), 25 mg daily raised to 50 and 75 mg daily, single agent); “improved” in [8] (Patient 1, lifelong depression, PMDD, sexual PTSD, 75 mg/day); “very effective” in data set [8] (Patient 2, lifelong anxiety, 4 years of depression, 50 mg/day); “improvement in their symptoms” in data set [8] (Patient 3, GAD, panic disorder, fibromyalgia/CFS, 50 mg/day); “has been well for a year and is able to read and function” in [8] (Patient 4, severe dissociative identity disorder, fibromyalgia, Bipolar Disorder, 200 mg/day); “very effective” in [8] (Patient 5, PTSD and bipolar 2 disorder, 50 mg/day in summer, 100 mg/day in winter). Further, the clinical response entry is given as “tremendous positive effects in 1 week” in [8] (Patient 6, failed most antidepressants, atypical antipsychotics and ECT, 100 mg/day); “significant benefit” in data set [8] (Patient 7, lifelong depression, sexual PTSD, fibromyalgia/CFS, 200 mg/day). Further, the libido entry in data set [4] (Case 1, 50 mg/day) is listed as “went from having no libido to some libido”. For the same compound, in [4] (Case 2, 25 mg daily, within 2 weeks), the vocational functioning entry was “felt calm and centered enough to return to work”. In addition, in [4] (Case 3, 25 mg daily, seven days after start), the nightmares and flashbacks result is “fewer nightmares and flashbacks”. Besides, the “reduction in trauma and affective symptoms” value in [4] (all 5 treatment-resistant women, after starting 7-keto DHEA) was “rapid and substantial reduction in their trauma and affective symptoms”. Further, the negative side effects result in data set [4] (the 5 patients on 7-keto DHEA) is recorded as “None of the 5 patients on 7-keto DHEA treatment reported any negative side effects”. For the same compound, in data set [5], the induced mania entry was “no case reports of induced mania”. Further, the “PTSD, depression and stress-related emotional conditions compared to placebo” value in data set [6] is “reduction in PTSD, depression and stress-related emotional conditions”; in data set [7] it was “reduction in their PTSD depression and stress-related emotional conditions”. Also, the “time the patient remained well” value is on record as 9 months in [8] (Example 3 patient 7, 200 mg/day); “about 1 year” in data set [8] (Example 3 patients 3 and 6 on 7-keto DHEA (50; 100 mg/day)). Moreover, in data set [8] (Patient 6, dosage increased from 100 mg/day to 300 mg/day after stressful episode (breast cancer)), the “clinical response after partial relapse” value is reported as “good results”.

With `C[C@]12CC[C@H](O)CC1=C[C@H](O)[C@@H]1[C@@H]2CC[C@]2(C)C(=O)CC[C@@H]12` [7 beta-hydroxy DHEA], the “preventing the nuclear uptake of [^3H]dexamethasone-activated glucocorticoid receptor” value in data set [9] was “efficient”.

For the compound `C[C@]12CC[C@H](O)CC1=C[C@@H](O)[C@@H]1[C@@H]2CC[C@]2(C)C(=O)CC[C@@H]12` [7 alpha-hydroxy DHEA], the “preventing the nuclear uptake of [^3H]dexamethasone-activated glucocorticoid receptor” value in data set [9] was “efficient”.

(Values after patent US8124598B2 (priority 2006, dated 2012).)
